Drawing on ChEMBL document CHEMBL1134688, “Synthesis, biological evaluation, and pharmacophore generation of new pyridazinone derivatives with affinity toward alpha(1)- and alpha(2)-adrenoceptors” (J Med Chem, 2001), this text covers Ki and Ratio for 26 compounds.

In experiment [1] the target is T1, Adrenergic receptor alpha-2 (Rattus norvegicus, UniProt P22086+P19328+P22909).
T1 sequence (P22086 whole entry): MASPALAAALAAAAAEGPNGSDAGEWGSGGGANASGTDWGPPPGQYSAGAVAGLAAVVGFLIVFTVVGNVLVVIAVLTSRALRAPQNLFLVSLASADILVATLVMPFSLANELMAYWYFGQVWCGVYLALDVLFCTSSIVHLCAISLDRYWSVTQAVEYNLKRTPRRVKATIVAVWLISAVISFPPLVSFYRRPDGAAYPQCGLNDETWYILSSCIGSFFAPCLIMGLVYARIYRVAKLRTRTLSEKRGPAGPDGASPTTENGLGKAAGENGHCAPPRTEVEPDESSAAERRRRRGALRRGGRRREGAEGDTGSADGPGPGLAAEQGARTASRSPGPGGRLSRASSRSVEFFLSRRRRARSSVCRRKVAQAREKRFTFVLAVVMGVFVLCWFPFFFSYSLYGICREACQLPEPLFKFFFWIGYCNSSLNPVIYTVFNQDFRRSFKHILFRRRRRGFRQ
T1 sequence (P19328 whole entry): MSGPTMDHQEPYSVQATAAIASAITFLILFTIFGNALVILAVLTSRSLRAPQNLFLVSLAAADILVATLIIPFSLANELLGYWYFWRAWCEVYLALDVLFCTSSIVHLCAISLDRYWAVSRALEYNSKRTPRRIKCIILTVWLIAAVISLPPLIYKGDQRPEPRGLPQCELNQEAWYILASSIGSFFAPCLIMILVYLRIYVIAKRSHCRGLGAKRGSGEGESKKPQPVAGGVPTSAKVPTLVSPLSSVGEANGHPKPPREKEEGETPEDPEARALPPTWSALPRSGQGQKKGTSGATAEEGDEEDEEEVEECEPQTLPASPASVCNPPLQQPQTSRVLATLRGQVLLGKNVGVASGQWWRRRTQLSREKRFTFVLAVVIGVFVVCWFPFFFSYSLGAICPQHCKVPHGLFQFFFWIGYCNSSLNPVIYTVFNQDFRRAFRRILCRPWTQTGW
T1 sequence (P22909 whole entry): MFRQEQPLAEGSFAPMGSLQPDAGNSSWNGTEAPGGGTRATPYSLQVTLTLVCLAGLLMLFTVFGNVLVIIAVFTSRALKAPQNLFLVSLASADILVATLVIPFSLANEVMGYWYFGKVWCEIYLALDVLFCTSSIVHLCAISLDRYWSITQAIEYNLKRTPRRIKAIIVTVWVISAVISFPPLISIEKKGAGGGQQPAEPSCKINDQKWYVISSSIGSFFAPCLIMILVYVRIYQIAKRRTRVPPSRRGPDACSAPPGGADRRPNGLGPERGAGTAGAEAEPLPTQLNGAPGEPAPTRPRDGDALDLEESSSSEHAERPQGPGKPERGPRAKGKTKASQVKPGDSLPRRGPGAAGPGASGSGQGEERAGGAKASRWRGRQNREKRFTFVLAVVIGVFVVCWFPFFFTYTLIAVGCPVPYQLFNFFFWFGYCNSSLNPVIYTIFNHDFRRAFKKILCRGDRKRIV
The experiment is described as follows: Binding affinity towards alpha-2 adrenergic receptor in rat cortex membrane using [3H]rauwolscine radioligand. The class given is cell membranes.

The target in experiment [2] is Adrenergic receptor alpha-2 (Rattus norvegicus) (UniProt P22086+P19328+P22909). The experiment in a line: Ratio of binding affinity towards Alpha-2 and alpha-1 adrenergic receptor. The class given is protein assay.
Experiment [3] addresses T2, Adrenergic receptor alpha-1 (Rattus norvegicus, UniProt P15823+P23944+P43140).
T2 sequence (P15823 whole entry): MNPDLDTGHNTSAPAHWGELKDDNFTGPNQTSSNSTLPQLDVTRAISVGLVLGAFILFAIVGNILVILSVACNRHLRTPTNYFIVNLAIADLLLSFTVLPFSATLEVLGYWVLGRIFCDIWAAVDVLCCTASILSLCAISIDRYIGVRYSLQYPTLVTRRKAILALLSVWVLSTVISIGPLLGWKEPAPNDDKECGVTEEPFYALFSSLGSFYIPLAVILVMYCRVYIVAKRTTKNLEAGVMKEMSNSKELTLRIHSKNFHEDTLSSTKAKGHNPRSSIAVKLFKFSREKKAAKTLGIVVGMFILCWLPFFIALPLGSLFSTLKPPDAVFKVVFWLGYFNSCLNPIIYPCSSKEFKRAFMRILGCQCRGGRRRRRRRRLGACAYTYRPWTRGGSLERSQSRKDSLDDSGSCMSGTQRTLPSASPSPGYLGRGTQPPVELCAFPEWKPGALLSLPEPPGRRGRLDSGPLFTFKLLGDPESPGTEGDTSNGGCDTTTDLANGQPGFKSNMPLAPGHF
T2 sequence (P23944 whole entry): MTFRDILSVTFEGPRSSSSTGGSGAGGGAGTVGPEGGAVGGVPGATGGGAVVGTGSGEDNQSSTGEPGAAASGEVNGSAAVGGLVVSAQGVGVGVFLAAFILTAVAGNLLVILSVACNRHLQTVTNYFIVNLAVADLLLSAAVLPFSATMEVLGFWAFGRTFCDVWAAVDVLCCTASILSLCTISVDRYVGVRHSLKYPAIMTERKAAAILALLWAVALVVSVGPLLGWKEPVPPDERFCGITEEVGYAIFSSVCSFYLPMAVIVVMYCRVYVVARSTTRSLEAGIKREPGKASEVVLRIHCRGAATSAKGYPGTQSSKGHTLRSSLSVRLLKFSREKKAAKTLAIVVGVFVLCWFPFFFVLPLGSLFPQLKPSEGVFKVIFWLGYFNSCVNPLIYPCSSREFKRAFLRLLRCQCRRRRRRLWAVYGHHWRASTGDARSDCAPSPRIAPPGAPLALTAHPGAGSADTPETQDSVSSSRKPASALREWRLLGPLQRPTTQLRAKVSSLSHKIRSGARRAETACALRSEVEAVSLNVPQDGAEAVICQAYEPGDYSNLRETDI
T2 sequence (P43140 whole entry): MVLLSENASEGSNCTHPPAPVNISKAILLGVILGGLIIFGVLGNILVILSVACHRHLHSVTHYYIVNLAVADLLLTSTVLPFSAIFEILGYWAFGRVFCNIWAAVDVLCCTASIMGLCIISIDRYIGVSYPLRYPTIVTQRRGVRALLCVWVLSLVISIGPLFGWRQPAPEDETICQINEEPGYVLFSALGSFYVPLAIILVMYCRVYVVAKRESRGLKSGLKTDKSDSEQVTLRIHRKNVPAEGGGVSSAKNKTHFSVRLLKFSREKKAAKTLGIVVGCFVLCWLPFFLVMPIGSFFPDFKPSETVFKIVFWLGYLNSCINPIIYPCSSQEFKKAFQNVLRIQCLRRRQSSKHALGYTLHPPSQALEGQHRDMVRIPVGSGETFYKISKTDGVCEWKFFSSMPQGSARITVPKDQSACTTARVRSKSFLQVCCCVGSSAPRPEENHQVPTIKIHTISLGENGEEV
The experiment is described as follows: Binding affinity towards alpha-1 adrenergic receptor in rat cortex membrane using [3H]-prazosin radioligand. The class given is cell membranes.

Usually Ki stands for the dissociation constant of the complex between target and ligand, obtained from inhibition or displacement. A higher Ki goes with lower affinity.

Regarding `COc1ccccc1OCCN1CCN(c2cnn(CCCCN3CCN(c4ccccc4OC)CC3)c(=O)c2Cl)CC1`, the figures for the Ki in experiment [1] and in experiment [3] were 230 nM and 4.3 nM, respectively. For the same compound, the Ratio in experiment [2] stood at 53.

Regarding `O=C(c1ccco1)N1CCN(c2ccc(=O)n(CCN3CCN(c4ccccc4Cl)CC3)n2)CC1`, the Ki in experiment [1] stood at 52.6 nM; in experiment [3], 34 nM. Further, the Ratio in experiment [2] stood at 1.5.

In the case of `COc1ccccc1N1CCN(CCCCn2ncc(N3CCN(C(=O)c4ccco4)CC3)c(Cl)c2=O)CC1`, the values for the Ki in experiment [1] and in experiment [3] were 870 nM and 33.5 nM, respectively. Besides, in experiment [2], the Ratio stood at 26.

In the case of `COc1ccccc1OCCN1CCN(c2cnn(CCCCCN3CCN(c4ccccc4Cl)CC3)c(=O)c2Cl)CC1`, the Ki in experiment [1] came out at 29 nM; in experiment [3] it was 4.5 nM. For the same compound, the Ratio in experiment [2] worked out at 6.4.

For `COc1ccccc1N1CCN(CCCCCCCn2ncc(N3CCN(C(=O)c4ccco4)CC3)c(Cl)c2=O)CC1`, the Ki in experiment [1] was determined as 520 nM; in experiment [3], 1.9 nM. Moreover, the Ratio in experiment [2] came out at 274.

On to `COc1ccccc1OCCN1CCN(c2cnn(CCCCCN3CCN(c4ccccc4OC)CC3)c(=O)c2Cl)CC1`, for which the Ki is recorded as 15 nM in experiment [1] and 3.9 nM in experiment [3]. Also, in experiment [2], the Ratio came to 3.8.

For `COc1ccccc1OCCN1CCN(c2cnn(CCCCCCCCN3CCN(c4ccccc4OC)CC3)c(=O)c2Cl)CC1`, the Ki is recorded as 22.7 nM in experiment [1] and 3.5 nM in experiment [3]. In addition, the Ratio in experiment [2] is 6.5.

In the case of `COc1ccccc1N1CCN(CCCn2ncc(N3CCN(C(=O)c4ccco4)CC3)c(Cl)c2=O)CC1`, the Ki in experiment [1] was found to be 680 nM; in experiment [3] it was 20.4 nM. In experiment [2], the Ratio stood at 33.3.

As to `COc1ccccc1OCCN1CCN(c2ccc(=O)n(CCCCCN3CCN(c4ccccc4OC)CC3)n2)CC1`, the Ki in experiment [1] is 69.8 nM; in experiment [3] it was 12.9 nM. Further, the Ratio in experiment [2] turned out to be 5.4.

As to `COc1ccccc1OCCN1CCN(c2cnn(CCCCCCCN3CCN(c4ccccc4Cl)CC3)c(=O)c2Cl)CC1`, the Ki in experiment [1] came to 7.4 nM; in experiment [3], 2.7 nM. Moreover, the Ratio in experiment [2] came to 2.7.

As for `COc1ccccc1OCCN1CCN(c2cnn(CCN3CCN(c4ccccc4OC)CC3)c(=O)c2Cl)CC1`, the Ki worked out at 409 nM in experiment [1] and 16 nM in experiment [3]. Besides, the Ratio in experiment [2] is 25.5.

As for `O=C(c1ccco1)N1CCN(c2ccc(=O)n(CCCCCN3CCN(c4ccccc4Cl)CC3)n2)CC1`, the values for the Ki in experiment [1] and in experiment [3] were 105 nM and 13.3 nM, respectively. Moreover, the Ratio in experiment [2] came to 7.9.

Regarding `COc1ccccc1OCCN1CCN(c2ccc(=O)n(CCCCCCN3CCN(c4ccccc4OC)CC3)n2)CC1`, the Ki is recorded as 71.8 nM in experiment [1] and 7 nM in experiment [3]. Further, the Ratio in experiment [2] is 10.2.

Consider `COc1ccccc1OCCN1CCN(c2ccc(=O)n(CCCCCN3CCN(c4ccccc4Cl)CC3)n2)CC1`, for which the figures for the Ki in experiment [1] and in experiment [3] were 138 nM and 7 nM, respectively. In addition, the Ratio in experiment [2] stood at 20.

As to `O=C(c1ccco1)N1CCN(c2cnn(CCCCCCCN3CCN(c4ccccc4Cl)CC3)c(=O)c2Cl)CC1`, the Ki in experiment [1] is on record as 36.2 nM; in experiment [3], 11.5 nM. Further, the Ratio in experiment [2] is 3.1.

On to `O=C(c1ccco1)N1CCN(c2cnn(CCCCCN3CCN(c4ccccc4Cl)CC3)c(=O)c2Cl)CC1`, for which the Ki in experiment [1] was found to be 18 nM; in experiment [3], 3.6 nM. For the same compound, the Ratio in experiment [2] was found to be 5.

Turning to `O=C(c1ccco1)N1CCN(c2ccc(=O)n(CCCN3CCN(c4ccccc4Cl)CC3)n2)CC1`, the results for the Ki in experiment [1] and in experiment [3] were 260 nM and 12.8 nM, respectively. In experiment [2], the Ratio was 20.3.

Take `COc1ccccc1OCCN1CCN(c2cnn(CCCN3CCN(c4ccccc4Cl)CC3)c(=O)c2Cl)CC1`: the Ki in experiment [1] came to 219 nM; in experiment [3], 27.8 nM. Also, the Ratio in experiment [2] came to 7.8.

As for `COc1ccccc1N1CCN(CCCCCn2ncc(N3CCN(C(=O)c4ccco4)CC3)c(Cl)c2=O)CC1`, the Ki in experiment [1] is reported as 23.3 nM; in experiment [3], 1.9 nM. The Ratio in experiment [2] stood at 12.3.

As to `COc1ccccc1OCCN1CCN(c2cnn(CCCCCCCN3CCN(c4ccccc4OC)CC3)c(=O)c2Cl)CC1`, the inhibition constant (Ki) in experiment [1] is 4.6 nM; in experiment [3] it was 1.4 nM. The Ratio in experiment [2] was 3.2.

As to `COc1ccccc1OCCN1CCN(c2ccc(=O)n(CCCCCCCN3CCN(c4ccccc4Cl)CC3)n2)CC1`, the Ki in experiment [1] came out at 139 nM; in experiment [3] it was 15 nM. For the same compound, in experiment [2], the Ratio was 9.3.

Take `COc1ccccc1OCCN1CCN(c2cnn(CCCCCCCCN3CCN(c4ccccc4Cl)CC3)c(=O)c2Cl)CC1`: the results for the Ki in experiment [1] and in experiment [3] were 22.8 nM and 5.6 nM, respectively. The Ratio in experiment [2] was 4.

With `O=C(c1ccco1)N1CCN(c2cnn(CCCCN3CCN(c4ccccc4Cl)CC3)c(=O)c2Cl)CC1`, the results for the Ki in experiment [1] and in experiment [3] were 280 nM and 19 nM, respectively. Moreover, in experiment [2], the Ratio was found to be 14.7.

Regarding `COc1ccccc1N1CCN(CCCCCn2nc(N3CCN(C(=O)c4ccco4)CC3)ccc2=O)CC1`, the Ki in experiment [1] was found to be 255 nM; in experiment [3] it was 43.7 nM. For the same compound, the Ratio in experiment [2] was 5.8.

As for `COc1ccccc1N1CCN(CCCn2nc(N3CCN(C(=O)c4ccco4)CC3)ccc2=O)CC1`, the Ki is 631 nM in experiment [1] and 64.5 nM in experiment [3]. In experiment [2], the Ratio worked out at 9.8.

Regarding `COc1ccccc1OCCN1CCN(c2cnn(CCCN3CCN(c4ccccc4OC)CC3)c(=O)c2Cl)CC1`, the Ki in experiment [1] is recorded as 245 nM; in experiment [3] it was 14.5 nM. Further, the Ratio in experiment [2] was determined as 17.
